# Columns and labels:
# Details in all cases: 72 h
# [1] = tested on: myeloid leukemia patient primary cells Pat.10; experiment: cell viability (% survival relative to DMSO control); higher = less cytotoxic
# Method in brief: (§1)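 Seventy compounds were pre-printed on 384-well plates at five tenfold concentrations between 1 and 10,000 nM, in duplicate. Thawed mononuclear cells purified by Ficoll from AML or CML patients were added at 10,000 cells/well in RPMI 1640 with 10% FBS for 72 h. Viability by CellTiter-Glo was normalised to DMSO and 10 μM proteasome-inhibitor wells. Where stated, area under the curve was taken from log-logistic fits made with the drc and PharmacoGx R packages, each fit having four parameters.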
# [2] = tested on: myeloid leukemia patient primary cells Pat.11; experiment: as above
# Method in brief: as §1
# [3] = tested on: myeloid leukemia patient primary cells Pat.12; experiment: as above
# Method in brief: as §1
# [4] = tested on: myeloid leukemia patient primary cells Pat.13; experiment: as above
# Method in brief: as §1
# [5] = tested on: myeloid leukemia patient primary cells Pat.14; experiment: as above
# Method in brief: as §1
# [6] = tested on: myeloid leukemia patient primary cells Pat.15; experiment: as above
# Method in brief: as §1
# [7] = tested on: myeloid leukemia patient primary cells Pat.1; experiment: as above
# Method in brief: as §1
# [8] = tested on: myeloid leukemia patient primary cells Pat.2; experiment: as above
# Method in brief: as §1
# [9] = tested on: myeloid leukemia patient primary cells Pat.3; experiment: as above
# Method in brief: as §1
# [10] = tested on: myeloid leukemia patient primary cells Pat.4; experiment: as above
# Method in brief: as §1
# [11] = tested on: myeloid leukemia patient primary cells Pat.5; experiment: as above
# Method in brief: as §1
# [12] = tested on: myeloid leukemia patient primary cells Pat.6; experiment: as above
# Method in brief: as §1
# [13] = tested on: myeloid leukemia patient primary cells Pat.7; experiment: as above
# Method in brief: as §1
# [14] = tested on: myeloid leukemia patient primary cells Pat.8; experiment: as above
# Method in brief: as §1
# [15] = tested on: myeloid leukemia patient primary cells Pat.9; experiment: as above
# Method in brief: as §1
# KU-812 = experiment: cell viability (% survival relative to DMSO control, bortezomib = 0%); higher = less cytotoxic
# Method in brief: (§2)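 After 72 h at 37 °C with 5% CO2, cell viability in 384-well plates was measured by CellTiter-Glo luminescence. The plates held compounds pre-printed at 1, 10, 100, 1000 or 10000 nM in duplicate, and cells from 10 AML and 5 CML lines seeded at densities titrated to linear growth. Percent survival is the duplicate mean, normalised to vehicle as 100% and a 10 µM positive control as 0%.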
# MOLM-13 = experiment: as above
# Method in brief: as §2
# NOMO-1 = experiment: as above
# Method in brief: as §2
# THP-1 = experiment: as above
# Method in brief: as §2
smiles,measurement,setting,value
c1ccc2c(c1)SCc1c-2[nH]c2ccccc12,cell viability,[1]; 1 nM,73.8%
same,cell viability,[1]; 10 nM,59.9%
same,cell viability,[1]; 100 nM,41.9%
same,cell viability,[1]; 1000 nM,3.78%
same,cell viability,[1]; 10000 nM,42.4%
same,cell viability,[2]; 1 nM,> 100%
same,cell viability,[2]; 10 nM,94.7%
same,cell viability,[2]; 100 nM,99.1%
same,cell viability,[2]; 1000 nM,89.8%
same,cell viability,[2]; 10000 nM,0.682%
same,cell viability,[3]; 1 nM,96.4%
same,cell viability,[3]; 10 nM,96.2%
same,cell viability,[3]; 100 nM,94.1%
same,cell viability,[3]; 1000 nM,81.1%
same,cell viability,[3]; 10000 nM,0.896%
same,cell viability,[4]; 1 nM,90.5%
same,cell viability,[4]; 10 nM,72.1%
same,cell viability,[4]; 100 nM,92.1%
same,cell viability,[4]; 1000 nM,61.1%
same,cell viability,[4]; 10000 nM,22.6%
same,cell viability,[5]; 1 nM,95.4%
same,cell viability,[5]; 10 nM,54.1%
same,cell viability,[5]; 100 nM,67.2%
same,cell viability,[5]; 1000 nM,4.19%
same,cell viability,[5]; 10000 nM,6.72%
same,cell viability,[6]; 1 nM,94.1%
same,cell viability,[6]; 10 nM,97.3%
same,cell viability,[6]; 100 nM,89.1%
same,cell viability,[6]; 1000 nM,59.8%
same,cell viability,[6]; 10000 nM,0.46%
same,cell viability,[7]; 1 nM,95.2%
same,cell viability,[7]; 10 nM,64.7%
same,cell viability,[7]; 100 nM,96.7%
same,cell viability,[7]; 1000 nM,85.8%
same,cell viability,[7]; 10000 nM,0.548%
same,cell viability,[8]; 1 nM,96.8%
same,cell viability,[8]; 10 nM,89.3%
same,cell viability,[8]; 100 nM,97.2%
same,cell viability,[8]; 1000 nM,86.9%
same,cell viability,[8]; 10000 nM,3.43%
same,cell viability,[9]; 1 nM,96.1%
same,cell viability,[9]; 10 nM,76.1%
same,cell viability,[9]; 100 nM,89.8%
same,cell viability,[9]; 1000 nM,2.3%
same,cell viability,[9]; 10000 nM,< 0%
same,cell viability,[10]; 1 nM,95.6%
same,cell viability,[10]; 10 nM,83.4%
same,cell viability,[10]; 100 nM,91%
same,cell viability,[10]; 1000 nM,67.8%
same,cell viability,[10]; 10000 nM,< 0%
same,cell viability,[11]; 1 nM,82.4%
same,cell viability,[11]; 10 nM,5.49%
same,cell viability,[11]; 100 nM,44.4%
same,cell viability,[11]; 1000 nM,7.88%
same,cell viability,[11]; 10000 nM,2.27%
same,cell viability,[12]; 1 nM,98.8%
same,cell viability,[12]; 10 nM,82.9%
same,cell viability,[12]; 100 nM,95%
same,cell viability,[12]; 1000 nM,88.3%
same,cell viability,[12]; 10000 nM,0.384%
same,cell viability,[13]; 1 nM,> 100%
same,cell viability,[13]; 10 nM,72.5%
same,cell viability,[13]; 100 nM,> 100%
same,cell viability,[13]; 1000 nM,41.6%
same,cell viability,[13]; 10000 nM,< 0%
same,cell viability,[14]; 1 nM,92.5%
same,cell viability,[14]; 10 nM,67.3%
same,cell viability,[14]; 100 nM,69.9%
same,cell viability,[14]; 1000 nM,75.9%
same,cell viability,[14]; 10000 nM,0.503%
same,cell viability,[15]; 1 nM,91.9%
same,cell viability,[15]; 10 nM,34.7%
same,cell viability,[15]; 100 nM,71%
same,cell viability,[15]; 1000 nM,2.02%
same,cell viability,[15]; 10000 nM,5.35%
same,cell viability,KU-812; 1 nM,99.6%
same,cell viability,KU-812; 10 nM,110%
same,cell viability,KU-812; 100 nM,105%
same,cell viability,KU-812; 1000 nM,95.3%
same,cell viability,KU-812; 10000 nM,0.3%
same,cell viability,MOLM-13; 1 nM,99.2%
same,cell viability,MOLM-13; 10 nM,87%
same,cell viability,MOLM-13; 100 nM,100%
same,cell viability,MOLM-13; 1000 nM,78.6%
same,cell viability,MOLM-13; 10000 nM,23.9%
same,cell viability,NOMO-1; 1 nM,97%
same,cell viability,NOMO-1; 10 nM,107%
same,cell viability,NOMO-1; 100 nM,108%
same,cell viability,NOMO-1; 1000 nM,98.2%
same,cell viability,NOMO-1; 10000 nM,0.816%
same,cell viability,THP-1; 1 nM,105%
same,cell viability,THP-1; 10 nM,100%
same,cell viability,THP-1; 100 nM,106%
same,cell viability,THP-1; 1000 nM,93.4%
same,cell viability,THP-1; 10000 nM,33.6%

# From the supplement of paper PMC8671470
